The target of one experiment is T1, human CRF1 (Homo sapiens, UniProt P34998).
T1 construct: expressed in transfected cells
T1 sequence (P34998 24-415): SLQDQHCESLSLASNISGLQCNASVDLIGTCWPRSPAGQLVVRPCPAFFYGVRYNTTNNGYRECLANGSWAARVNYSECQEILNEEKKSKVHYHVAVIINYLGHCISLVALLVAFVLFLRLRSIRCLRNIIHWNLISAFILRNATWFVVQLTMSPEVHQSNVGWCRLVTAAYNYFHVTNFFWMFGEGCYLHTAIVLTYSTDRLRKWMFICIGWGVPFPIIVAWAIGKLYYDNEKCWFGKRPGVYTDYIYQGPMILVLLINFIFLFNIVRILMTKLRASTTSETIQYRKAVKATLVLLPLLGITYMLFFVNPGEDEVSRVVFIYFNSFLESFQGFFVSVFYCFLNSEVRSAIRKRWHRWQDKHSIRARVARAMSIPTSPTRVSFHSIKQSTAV
Kind of experiment: CRF1 filter binding assay. The settings on record: HEK-hCRF1 membranes; 125I-Sauvagine (4 nM) in roller/adherent cells; read-out: Ki (inhibition constant), inhibition of binding of 125I-Sauvagine. The protocol:
The limitations of plasmid-based human CRF1 expression, in terms of generating a recombinant cell line with sufficient receptor density to develop a binding assay, are overcome by using a Phoenix retroviral expression system licensed from Stanford. The stable HEK-hCRF1 cell line is used to prepare membranes and binding reactions (200 μl) are set up as follows: 50 μl of ^125I-sauvagine (0.2 nM final), 50 μl compound and 100 μl CRF1 membrane (25 μg/reaction). The reactions are incubated at room temperature for 2 hours and then terminated by filtration through pre-treated FB Millipore glass fiber filter plates (96 well). The plates are wash twice with ice-cold assay buffer (50 mM tris, 12.5 mM NaCl, 1 mM EDTA, 10 mM MgCl2, 0.05% BSA, pH 7.2), air dried over night and counted with 100 μl Microscint 40 in a MicroBeta counter. Non-specific binding (NSB) is determined in the presence of 0.5 μM non-labeled sauvagine. Triplicate determinations are typically run and the median data points plotted by Graph Pad Prism.
Using this assay, the exemplified compounds of the present invention (except for Examples 2, 3, 6, 7, and 8, which were used as intermediates for other Examples and were not tested.) inhibit the binding of ^125I-Sauvagine (4 nM) in roller/adherent cells with a Ki (inhibition constant)≦500 nM.

The next experiment concerns the target T2, human CRF2 (Homo sapiens, UniProt Q13324).
T2 construct: expressed in transfected cells
T2 sequence (Q13324 1-411): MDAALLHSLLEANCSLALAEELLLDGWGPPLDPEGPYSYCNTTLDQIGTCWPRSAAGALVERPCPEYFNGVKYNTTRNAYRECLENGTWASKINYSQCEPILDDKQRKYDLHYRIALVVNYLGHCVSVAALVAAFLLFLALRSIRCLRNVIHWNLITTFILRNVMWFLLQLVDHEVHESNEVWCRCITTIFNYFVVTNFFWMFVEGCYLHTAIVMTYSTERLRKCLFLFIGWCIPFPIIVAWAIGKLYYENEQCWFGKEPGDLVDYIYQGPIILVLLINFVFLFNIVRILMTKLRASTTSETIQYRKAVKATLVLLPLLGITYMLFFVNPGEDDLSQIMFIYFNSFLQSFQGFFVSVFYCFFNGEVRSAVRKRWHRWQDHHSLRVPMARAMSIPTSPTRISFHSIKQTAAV
Kind of experiment: CRF2 filter binding assay. The settings on record: HEK-hCRF2 membranes; compound concentration 50 μM. On the procedure: The limitations of plasmid-based human CRF2 expression, in terms of generating a recombinant cell line with sufficient receptor density to develop a binding assay, are overcome by using a Phoenix retroviral expression system licensed from Stanford. The stable HEK-hCRF2 cell line is used to prepare membranes and binding reactions (200 μl) are set up as follows: 50 ul of ^125I-sauvagine (0.2 nM final concentration), 50 μl compound and 100 μl CRF2 membrane (25 μg/reaction). The reactions are incubated at room temperature for 2 hours and then terminated by filtration through pre-treated FB Millipore glass fiber filter plates (96 well). The plates are washed twice with ice-cold assay buffer (50 mM tris, 12.5 mM NaCl, 1 mM EDTA, 10 mM MgCl2, 0.05% BSA, pH 7.2), air dried over night and counted with 100 μl Microscint 40 in a MicroBeta counter. Non-specific binding (NSB) is determined in the presence of 0.5 μM non-labeled sauvagine. Alternatively, compounds are evaluated using a Scintillation Proximity assay. […] Bound radioactivity is assessed using a Wallac Trilux scintillation counter. Binding is assessed typically using triplicate determinations and the median data points plotted by Graph Pad Prism. […]

Experiment [1] deals with T3, binding of 125I-sauvagine to the cerebellum (Rattus norvegicus, UniProt P35353).
T3 construct: from tissue; host or cells: rat cerebellum
T3 sequence (P35353 24-415): T1 sequence (P34998 24-415) with H6R, S9N, A13T, I16V, M153V, G163A, I209V, Y229H, H356R
Kind of experiment: In vivo potency assessment using ex vivo binding. Particulars: oral route. On the procedure: To assess in vivo potency, a compound of the present invention is evaluated using ex vivo binding. Using the procedures as provided in D. R. Gehlert et al., EJP 509: 145-153 (2005), a compound is administered to a rat via the oral route.

Residue numbers refer to the chain shown, from its start. pKi: −log10 of the molar value.

With `CCCC(CCC)c1cc(C)nc2c(-c3sc(-c4ncnn4C)cc3Cl)c(C)nn12` [Example 20, 3-[3-Chloro-5-(2-methyl-2H-[1,2,4]triazole-3-yl)-thiophene-2-yl]-7-(1-propyl-butyl)-2,5-dimethyl-pyrazolo[1,5-a]pyrimidine], the pKi (commonly the negative decadic logarithm of the Ki, by convention in mol/L) at human CRF1 was 8.36. Besides, the inhibition (usually the change of the read-out against control, counted positive when it falls) at 50 µM at human CRF2 was found to be 39%. The compound further displayed an inhibition at 10 mg/kg in experiment [1] of 74%.

These data come from US8110580B2, “Thiophene pyrazolopyrimidine compounds” (Eli Lilly and Company, priority 2006, dated 2012).
